The source of these data is US9856511B2, “Protease deubiquitinating inhibitor screening” (priority 2011, dated 2018).

One assay deals with HCT-116 cells. Put plainly: Cell-cycle analysis, propidium iodide staining and flow cytometry. Type of assay: cell-based. The protocol:
The turnover of many cell cycle regulatory proteins is controlled by the UPS including inhibitors of the cyclin-dependent kinases p21 Cip1, p27 Kip1 and the tumor suppressor p53 (4). Treatment with b-AP15 increased their levels in a dose dependent manner.
For determination of cell cycle HCT-116 cells were treated with b-AP15 or DMSO Cells were harvested by trypsinisation, washed and fixed in 70% ice cold EtOH for 12 h. Cells were re-suspended in staining solution containing propidium iodide (50 μg/ml) and RNAse A (0.5 μg/ml) in PBS. Samples were run on BD FACScalibur. The percentage of cells in each phase of the cell cycle was determined using ModFit software.
b-AP15 inhibits degradation of ubiquitin-tagged YFP in a proteasome reporter cell line (FIG. 1a). Levels of ^UbG76V-YFP accumulation were determined by flow cytometry and immunoblotting; immunoblot of ubiquitin conjugation in HCT-116 cells treated with b-AP15 (1 μM) or bortezomib (100 nM) (FIG. 1b). Immunoblot of ubiquitin conjugates, caspase 3 activation PARP cleavage, p53. P21^Cip1 and p^Kip1 in HCT-116 cells following 24 h treatment with the indicated concentrations of b-AP15 (FIG. 1c). […]
For orientation: Flow cytometry measures light scatter and fluorescence of single cells or particles in a stream.

The next assay deals with T1, human 20S proteasome (Homo sapiens, UniProt P28072+P28074+Q99436).
T1 construct: purchased Boston Biochem E-360
Put plainly: In vitro proteasome activity assay (Suc-LLVY-AMC, Z-LLE-AMC, Boc-LRR-AMC). It is filed as biochemical. The conditions noted are these: molar excess of b-AP15. The protocol: 20S CP contains the β1, β2 and […] proteolytic subunits responsible for caspase-like, trypsin-like and chymotrypsin-like activities of the proteasome, respectively (18).
In vitro proteasome activity assays were performed in black 96-well microtiter plates using human 20S proteasome (Boston Biochem) in reaction buffer (25 mM Hepes, 0.5 mM EDTA, 0.03% SDS) with Suc-LLVY-AMC, Z-LLE-AMC or Boc-LRRAMC used as substrates for proteasome activity. De-ubiquitinase activity assays were performed with human 19S RP (Boston Biochem) with ubiquitin-AMC as substrate. For xenograft studies a 100-μl-cell suspension containing 1×10^6 FaDu head-neck or 2×10^5 Lewis Lung Carcinoma (LLC) cells were injected subcutaneously into the flank of SCID or C57BL/6J mice. Upon tumor take mice were randomized into control or treatment groups and administered with 5 mg kg^−1 b-AP15 or vehicle. In vivo levels of apoptosis and cell death were determined from the detection of caspase cleaved and total levels of cytokeratin-18 in plasma using M30 Apoptosense® and M65 ELISA®s assays (Peviva). […]
In vitro proteasome activity assays using 20S CP (2 nM) (Boston Biochem) were performed at 37° C. in 100-μl reaction buffer (25 mM Hepes, 0.5 mM EDTA, 0.03% SDS). […] Fluorescence was monitored using Wallac Multilabel counter or Tecan Infinite M1000 equipped with 360 nm excitation and 460 nm emission filters. […]

`C=CC(=O)N1C/C(=C\c2ccc([N+](=O)[O-])cc2)C(=O)/C(=C/c2ccc([N+](=O)[O-])cc2)C1` [b-AP15]: in the assay on HCT-116 cells, the cell cycle effect result is recorded as “cell cycle arrest in the G2/M phase boundary”. Besides, the “caspase-like, trypsin-like and chymotrypsin-like activities of the proteasome” value at human 20S proteasome is listed as “do not show alteration”.
